Measured values reported in patent publication US4639468A, “Derivatives of glycinamide, their preparation and their use” (priority 1979, dated 1987).
Where two headings read alike, the source gives them in different places.

Tests used:
platelet agglutination = experiment: inhibition of platelet agglutination in human plasma (turbidimetric method of Born and Cross, Trombofax); type: cell-based; conditions: human plasma rich in platelets, preincubated 3 minutes before Trombofax
Procedure: The measure of the inhibition of platelet agglutination is made according to the turbidimetric method of G. V. R. Born and M. J. Cross (J. Physiol. 168, 178, […]). The plasma rich in platelets is preincubated for 3 minutes before introduction of the inductor agent, Trombofax. The inhibion of the maximum amplitude of agglutination is measured by means of Upchurch agglutometer. In this test, compounds 1, 11, 14 and 18 have shown as being active.

[1] = tested on: convulsions induced by bicuculline; experiment: in vivo; conditions: for bicuculline (score: sum of animals protected by dosages of 10 and 100 mgr/kg): oral, 5 mice each, 3 hours before bicuculline 0.6 mgr/kg i.v., tonic convulsions; for ED50: Mus musculus; for DL50/DE50 (therapeutical index): Table III
Procedure: (§1) The anticonvulsive effect was examined for tonic convulsions induced by bicuculline. The compounds of the invention were administrated orally at dosages of 10 and 100 mgr/kg, each to 5 mice, 3 hours before intravenous injection of bicuculline at the dosage of 0.6 mgr/kg. The number of mice protected against tonic convulsions and the number of dead mice were noted.
(§2) Amongst the substances according to the invention, 2-n-pentylaminoacetamideand its hydrochloride were more particularly studied. […] The hydrochloride was also administered intravenously. […] Table III also gives the therapeutical index (LD50/ED50).

in vivo [2] = experiment: in vivo
mouse = experiment: passive prevention (memory) in mouse; type: in vivo; conditions: 50 mgr/kg intraperitoneally
From the text: This product and very likely other compounds of the invention thus improve mnesic retention.

mice = experiment: in vivo; conditions: oral, mice; Table II
[3] = tested on: convulsions due to leptazol; experiment: convulsions due to leptazol in mouse; type: in vivo
[4] = tested on: convulsions induced by strychnine; experiment: convulsions induced by strychnine; conditions: in vivo
[5] = tested on: decarboxylase glutamate (GAD); experiment: activity of decarboxylase glutamate (GAD) in homogenizates of rat brain; type: biochemical; conditions: 10^-4 M
Procedure: The substances of the invention have the property of inhibiting convulsions induced by bicculline in mouse. […] As a matter of fact, bucuculline is a specific antoganist of GABA. Besides, the effect of the products on the activity of the GABA synthesis enzyme, decarboxylase glutamate (GAD), was studied. The activity of the GAD was determined in homogenizates of rat brain according to the method described by L. Parker (Methods in Enzymology, Ed. S. Fleischer, 1974, Vol. XXXII, part V., p. 779). […] In general, the products of the invention […] the activity of the […] (GABA-T), enzyme of GABA catabolism, which results in an increase of the GABA levels at the level of GABA-ergic neurons.

[6] = tested on: central serotoninergic system; experiment: potentiation of the effects of 1-trypthophan in mouse; type: in vivo
mortality caused by KCN = experiment: protection of mice against mortality caused by KCN; type: in vivo, mouse
[7] = tested on: GABA rate of the black substance; experiment: GABA rate of the black substance after oral administration in rat; type: in vivo; conditions: 200 mgr/kg per os, 4 hours after treatment
GAD = GAD activity after oral administration in rat; type: in vivo; conditions: 200 mgr/kg per os
[8] = tested on: accumulation of lactate in the brain; experiment: cerebral anoxia caused by decapitation of rat: lactate in the brain; type: in vivo; conditions: first seconds of anoxia caused by decapitation
From the text: This activity very likely explains itself by an effect on the cerebral energetic metabolism during anoxia. This effect on the cerebral energetic metabolism has been confirmed for 2-n-pentylaminoacetamide hydrochloride in a series of experiments on cerebral anoxia caused by decapitation of rat.

GABA-T = GABA-T activity after oral administration in rat; type: in vivo; conditions: 200 mgr/kg per os
[9] = tested on: convulsions due to picrotoxine; experiment: convulsions due to picrotoxine; conditions: in vivo
From the text: (3) 2-n-pentylaminoacetamide hydrochloride has no effect on the convulsions due to picrotoxine.

in vivo [10] = conditions: mouse, in vivo, po
Procedure: as §1, §2

[11] = mouse, in vivo, po, mice; Table II; read-out: DL50 (the source's name)
[12] = in vivo, po; mouse; Table III; read-out: DL50 (the source's name)

Row | Compound | bicuculline (score: sum of animals protected by dosages of 10 and 100 mgr/kg) [1] | LD50 (in vivo [2]; [11]) | DL50 (mice) | further results
1 | CCCCCCCCNCC(N)=O [Compound 1, 2-n-octylaminoacetamide] | 4 | 2220 mg/kg |  | inhibition of platelet agglutination (platelet agglutination): active; behaviour extinction in passive prevention (mouse): delayed the behaviour extinction
2 | CCCCCCNCC(N)=O [Compound 2, 2-n-hexylaminoacetamide] | 4 |  | 780 mg/kg | 
3 | CCCCCNCC(N)=O [Compound 3, 2-n-pentylaminoacetamide] | 7 |  | 1925 mg/kg | inhibition of convulsions due to leptazol [3]: only slightly inhibits; ED50 ([1]; iv, 3 h, read-out: DE50): 11.2 mg/kg; ED50 ([1]; po): 11.2 mg/kg; antagonist action against convulsions due to bicuculline on increase of the bicuculline doses ([1]; increased bicuculline doses): may be overcome by an increase of the bicuculline doses; competition with bicuculline ([1]; mouse, in vivo): competes with bicuculline; DL50/DE50 (therapeutical index) ([1]; mouse): 172; activity against convulsions induced by strychnine [4]: inactive; effect on the activity of GAD [5]: particularly remarkable; effect on the effects of 1-trypthophan [6]: potentiates the effects of 1-trypthophan
4 | COC(=O)CCCCCNCC(N)=O [Compound 8] | 1 | > 3000 mg/kg |  | effect on the activity of GAD [5]: particularly remarkable
5 | CCCCCCCNCC(N)=O [Compound 9, 2-n-Heptylaminoacetamide] | 5 | 1420 mg/kg |  | protection against mortality caused by KCN (mortality caused by KCN): protect mice against mortality caused by KCN
6 | CCCCCCCCCNCC(N)=O [Compound 11] | 2 | 1950 mg/kg |  | inhibition of platelet agglutination (platelet agglutination): active
7 | CCCCCCNCC(N)=O [Compound 12, 2-n-hexylaminoacetamide] | 5 |  | 2800 mg/kg | 
8 | CCCCCCCCCCNCC(N)=O [Compound 14, 2-n-decylaminoacetamide] | 6 | 2600 mg/kg |  | inhibition of platelet agglutination (platelet agglutination): active
9 | CCCCCCCC(C)NCC(N)=O (stereo not drawn) [Compound 18] | 2 | > 1000 mg/kg |  | inhibition of platelet agglutination (platelet agglutination): active
10 | CCCCCNCC(N)=O [Compound 20] | 1 |  | > 1000 mg/kg | 
11 | COC(=O)CCCCCCCNC(C(N)=O)C(N)=O [Compound 23, Methyl 8-(dicarboxamidomethyl)aminooctanoate] | 7 |  | > 1000 mg/kg | 
12 | CCCCCCN(CC(N)=O)C(=O)c1ccccc1 [Compound 25] | 5 | 3660 mg/kg |  | 
13 | CCCCCNCC(N)=O [Compound 26] | 3 |  | 1950 mg/kg | 
14 | CCCCCCNCC(N)=O [Compound 27] | 4 |  | 860 mg/kg | 
15 | CCCCCCN(CC)CC(N)=O [Compound 28] | 5 | 435 mg/kg |  | 
16 | CCCCCCN(C)CC(N)=O [Compound 30, 2-(N-n-hexyl-N-methylamino)acetamide] | 4 | 570 mg/kg |  | 
17 | CCCCCCNCC(N)=O [Compound 31] | 6 |  | 1650 mg/kg | 
18 | CCCCCNCC(N)=O.Cl [Compound 33, 2-n-pentylaminoacetamide hydrochloride] | 6 | 2880 mg/kg |  | increase of GABA rate of the black substance [7]: 38%; ED50 ([1]; iv): 2.19 mg/kg; ED50 ([1]; iv, 3 h, read-out: DE50): 5.74 mg/kg; ED50 ([1]; po): 5.74 mg/kg; absorption from the intestinal tractus ([1]; mouse, in vivo): excellent absorption from the intestinal tractus; DL50/DE50 (therapeutical index) ([1]; mouse): 390; LD50 (in vivo [2]; mouse, in vivo, po, mouse; Table III; read-out: DL50 (the source's name)): 2240 mg/kg; potentiation of the GAD activity (GAD): 26%; accumulation of lactate in the brain [8]: prevents accumulation of lactate in the brain; effect on the activity of GAD [5]: particularly remarkable; effect on GABA-T (GABA-T): without modifying; effect on the convulsions due to picrotoxine [9]: no effect
19 | CCCCCNCC(N)=O [Compound 34] | 5 |  | > 3000 mg/kg | 
20 | CCCCCNCC(N)=O [Compound 35] | 3 |  | > 3000 mg/kg | 
21 | CCC1(c2ccccc2)C(=O)NC(=O)NC1=O [Na Phenobarbital, reference compound] |  |  |  | selectivity ratio (in vivo [10]): 88; ED50 ([1]; iv, 3 h, read-out: DE50): 2.11 mg/kg; LD50 (in vivo [2]; [12]): 185 mg/kg
22 | CCCC(CCC)C(=O)O [Na Valproate, reference compound] |  |  |  | selectivity ratio (in vivo [10]): 14; ED50 ([1]; iv, 3 h, read-out: DE50): 89.1 mg/kg; LD50 (in vivo [2]; [12]): 1250 mg/kg; activity against convulsions induced by strychnine [4]: inactive
